# In patent US12473291B2 (priority 2019, dated 2025):
# Where a name gives a salt, the structure may show the parent alone. Read-outs that look alike come from different tables or passages of the source.
# Assays:
# [1] = system: KM mice; test: animal or person; type: in vivo; details: for duration and recovery time compared with remimazolam / effective dose compared with remimazolam: mice, tail vein, in words
# [2] = system: SD rats; test: animal or person; type: in vivo; details: for duration and recovery time compared with remimazolam / effective dose compared with remimazolam: rats, tail vein, in words
# [3] = KM mice, single tail vein injection at 2×ED50, time from disappearance to recovery of righting reflex
# [4] = KM mice, single tail vein injection at 2×ED50, time from recovery of righting reflex to free crawling
# [5] = Mus musculus, KM mice (male, 18-22 g), injection via the tail vein, disappearance of righting reflex, read-out: ED50
# [6] = Rattus norvegicus, SD rats (male, 220-300 g), injection via the tail vein, disappearance of righting reflex, read-out: ED50
# [7] = SD rats, single tail vein injection at 2×ED50, time from disappearance to recovery of righting reflex
# [8] = SD rats, single tail vein injection at 2×ED50, time from recovery of righting reflex to free crawling
# [9] = KM mice (male, 18-22 g), injection via the tail vein, disappearance of righting reflex
# [10] = SD rats (male, 220-300 g), injection via the tail vein, disappearance of righting reflex
SMILES,"2ED50 duration [1, 3]","2ED50 recovery time [1, 4]","Quality of recovery ([1]; KM mice, tail vein injection)","ED50 [1, 5]","ED50 [2, 6]","2ED50 duration [2, 7]","2ED50 recovery time [2, 8]","Quality of recovery ([2]; SD rats, tail vein injection)",other results
COC(=O)COC(=O)CC[C@@H]1N=C(c2ccccn2)c2cc(Br)c(Br)cc2-n2c(C)cnc21 [Example 20],4.47 min,2.43 min,+++ (“+++” means 3-5 min),31.4 mg/kg,4.7 mg/kg,3.47 min,2.49 min,++ (“++” means 1-3 min),–
"CCOC(=O)COC(=O)CC[C@@H]1N=C(c2ccccn2)c2cc(Br)ccc2-n2c(C)cnc21 [Example 57, 2-Ethoxy-2-oxoethyl-3-((4S)-8-bromo-1-methyl-6-(pyridine-2-yl)-4H-benzo [f]imidazo[1,2-a][1,4]diaza-4-ylpropionate]",3.90 min,2.31 min,–,25 mg/kg,4.7 mg/kg,5.07 min,2.41 min,+ (“+” means <1 min),duration and recovery time compared with remimazolam [1]: significantly shorter; effective dose compared with remimazolam [1]: significantly lower; duration and recovery time compared with remimazolam [2]: significantly shorter; effective dose compared with remimazolam [2]: significantly lower
CC(=O)O.COC(=O)C1(OC(=O)CC[C@@H]2N=C(c3ccccn3)c3cc(Cl)c(OC(F)(F)F)cc3-n3c(C)cnc32)CC1 [Example 42],0.58 min,0.53 min,+ (“+” means <1 mm),–,–,0.51 min,0.31 min,+ (“+” means <1 min),"ED50 [1, 9]: 8.7 mg/kg; duration and recovery time compared with remimazolam [1]: significantly shorter; effective dose compared with remimazolam [1]: significantly lower; ED50 [2, 10]: 4.7 mg/kg; duration and recovery time compared with remimazolam [2]: significantly shorter; effective dose compared with remimazolam [2]: significantly lower"
CCOC(=O)OCOC(=O)CC[C@@H]1N=C(c2ccccn2)c2ccc(Cl)cc2-n2c(C)cnc21 [Example 36],4.34 min,1.49 min,+++ (“+++” means 3-5 min),27.8 mg/kg,2.8 mg/kg,3.14 min,2.39 min,+++ (“+++” means 3-5 min),–
CCOC(=O)OC(C)OC(=O)CC[C@@H]1N=C(c2ccccn2)c2cc(Br)c(Br)cc2-n2c(C)cnc21 (stereo partly shown) [Example 16],1.57 min,1.23 min,–,15.7 mg/kg,3.4 mg/kg,0.57 min,0.53 min,+ (“+” means <1 min),duration and recovery time compared with remimazolam [1]: significantly shorter; effective dose compared with remimazolam [1]: significantly lower; duration and recovery time compared with remimazolam [2]: significantly shorter; effective dose compared with remimazolam [2]: significantly lower
COC(=O)C(OC(=O)CC[C@@H]1N=C(c2ccccn2)c2cc(Cl)cc(OC(F)(F)F)c2-n2c(C)cnc21)C1CCCCCCCCC1 (stereo partly shown) [Example 82],3.54 min,2.13 min,+++ (“+++” means 3-5 min),29.8 mg/kg,5.8 mg/kg,2.15 min,2.10 min,++ (“++” means 1-3 min),–
"COc1cc(C)cc2c1-n1c(C)cnc1[C@H](CCC(=O)OC1(C(=O)OC(C)C)CC1)N=C2c1ccccn1 [Example 80, Isopropyl 1-((3-((4S)-10-methoxy-1,8-dimethyl-6-(pyridine-2-yl)-4H-benzo[f]imidazo[1,2-a][1,4]diaza-4-yl)propionyl)oxy) cyclopropane-1-carboxylate methyl sulfate]",3.56 min,2.01 min,+++ (“+++” means 3-5 min),30.9 mg/kg,6.7 mg/kg,2.36 min,2.18 min,++ (“++” means 1-3 min),–
COC(=O)C1(OC(=O)CC[C@@H]2N=C(c3ccccn3)c3ccc(C(F)(F)F)c(Cl)c3-n3c(C)cnc32)CC1 [Example 41],3.53 min,1.57 min,++ (“++” means 1-3 min),28.9 mg/kg,5.9 mg/kg,3.43 min,2.47 min,++ (“++” means 1-3 min),–
COC(=O)OC(C)OC(=O)CC[C@@H]1N=C(c2ccccn2)c2cc(Br)c(Br)cc2-n2c(C)cnc21 (stereo partly shown) [Example 15],1.43 min,1.01 min,–,18.3 mg/kg,1.5 mg/kg,1.29 min,1.01 min,+ (“+” means <1 min),duration and recovery time compared with remimazolam [1]: significantly shorter; effective dose compared with remimazolam [1]: significantly lower; duration and recovery time compared with remimazolam [2]: significantly shorter; effective dose compared with remimazolam [2]: significantly lower
CCCOC(=O)C1(OC(=O)CC[C@@H]2N=C(c3ccccn3)c3c(cc(OC(F)(F)F)c(Cl)c3C)-n3c(C)cnc32)CC1 [Example 75],3.53 min,1.58 min,+++ (“+++” means 3-5 min),29.1 mg/kg,5.8 mg/kg,2.26 min,2.15 min,+++ (“+++” means 3-5 min),–
Cc1cnc2n1-c1cc(Br)c(Br)cc1C(c1ccccn1)=N[C@H]2CCC(=O)OCOC(=O)OC(C)C(C)C (stereo partly shown) [Example 13],5.22 min,2.34 min,+++ (“+++” means 3-5 min),27 mg/kg,5.3 mg/kg,4.02 min,2.45 min,+++ (“+++” means 3-5 min),–
"COC(=O)COC(=O)CC[C@@H]1N=C(c2ccccn2)c2cc(Br)ccc2-n2c(C)cnc21 [Example 56, 2-Methoxy-2-oxoethyl-3-((4S)-8-bromo-1-methyl-6-(pyridine-2-yl)-4H-benzo[f]imidazo[1,2-a][1,4]diaza-4-ylpropionate]",4.08 min,1.20 min,++ (“++” means 1-3 min),27.2 mg/kg,6.8 mg/kg,1.05 min,1.12 min,++ (“++” means 1-3 min),–
"Cc1c(Cl)c(C(F)(F)F)cc2c1C(c1ccccn1)=N[C@@H](CCC(=O)OC(C)C(=O)OC(C)C)c1ncc(C)n1-2 (stereo partly drawn) [Example 78, 1-Isopropoxy-1-oxopropane-2-yl3-((4S)-8-chloro-1,7-dimethyl-6-(pyridine-2-yl)-9-(trifluoromethyl)-4H-benzo[f]imidazo[1,2-a][1,4]diaza-4-ylpropionate nicotinate]",–,–,–,–,–,–,–,–,"ED50 ([1]; Mus musculus): 28.2 mg/kg; 2ED50 duration ([1]; mouse, in vivo): 3.39 min; 2ED50 recovery time ([1]; mouse, in vivo): 1.36 min; Quality of recovery ([1]; mouse, in vivo): ++ (key: “+” means <1 mm; “++” means 1-3 min; “+++” means 3-5 min; “++++” means 5-10 min; “+++++” means >10 mm); ED50 ([2]; Rattus norvegicus): 6.2 mg/kg; 2ED50 duration ([2]; rat, in vivo): 2.55 min; 2ED50 recovery time ([2]; rat, in vivo): 2.38 min; Quality of recovery ([2]; rat, in vivo): ++ (key: “+” means <1 mm; “++” means 1-3 min; “+++” means 3-5 min; “++++” means 5-10 min; “+++++” means >10 mm)"
COC(=O)C1(OC(=O)CC[C@@H]2N=C(c3ccccn3)c3cc(Br)c(Br)cc3-n3c(C)cnc32)CC1 [Example 18],5.09 min,2.49 min,+++ (“+++” means 3-5 min),30.1 mg/kg,4.8 mg/kg,4.49 min,2.58 min,+++ (“+++” means 3-5 min),–
COC(=O)C1(OC(=O)CC[C@@H]2N=C(c3ccccn3)c3cc(Cl)c(C(F)(F)F)cc3-n3c(C)cnc32)CC1 [Example 40],4.26 min,1.55 min,++ (“++” means 1-3 min),–,–,4.06 min,2.01 min,++ (“++” means 1-3 min),"ED50 [1, 9]: 24.8 mg/kg; ED50 [2, 10]: 6.8 mg/kg"
Cc1cnc2n1-c1cc(Br)c(Br)cc1C(c1ccccn1)=N[C@H]2CCC(=O)OC(C)OC(=O)OC(C)C (stereo partly shown) [Example 17],4.39 min,2.53 min,++ (“++” means 1-3 min),29.2 mg/kg,4.3 mg/kg,4.39 min,2.43 min,++ (“++” means 1-3 min),–
CCCOC(=O)OCOC(=O)CC[C@@H]1N=C(c2ccccn2)c2cc(Br)ccc2-n2c(C)cnc21 [Example 47],3.90 min,2.42 min,++++ (“++++” means 5-10 min),27 mg/kg,6.2 mg/kg,4.07 min,2.38 min,++ (“++” means 1-3 min),–
Cc1cnc2n1-c1ccc(Br)cc1C(c1ccccn1)=N[C@H]2CCC(=O)OCOC(=O)OC(C)(C)C [Example 49],2.65 min,1.22 min,–,20 mg/kg,5 mg/kg,1.24 min,2.01 min,+ (“+” means <1 min),duration and recovery time compared with remimazolam [1]: significantly shorter; effective dose compared with remimazolam [1]: significantly lower; duration and recovery time compared with remimazolam [2]: significantly shorter; effective dose compared with remimazolam [2]: significantly lower
